Source: patent publication US20230151386A1, “Apparatus for Improved Transfection Efficiency and / or Protein Expression and Method of Use Thereof” (St Andrews Pharmaceutical Technology Ltd., priority 2020, published 2023)

System: p53alpha
Experiment: Western blot of p53 isoforms in HCT 116 cells after doxorubicin with or without pulsed technology
Assay type: cell-based, Human
Details: 0.25 μM for 1 hour
Procedure: Human Colon Tumour (HCT) 116 cells (adherent cells) (ATCC, USA-ATCC® CCL-247™) were seeded at a density of 3×10^5 cells per well in two CELLSTAR®6-well plates (9.6 cm^2) in a final volume of 5 mL Dulbeccos Modified Eagle Medium (DMEM) (Thermo Fisher, USA)+10% Fetal Bovine Serum (FBS) (Hyclone, USA) 24 hours before treatment.
The naked agent used was Doxorubicin (0.25 μM) (Sigma Aldrich) in absolute ethanol and was given to the cells for a 1 hour treatment period and incubated at 37° C., at 5% CO^2.
After treatment the media was removed and fresh media was added to the cells. One of the plates was incubated directly at 37° C., at 5% CO^2 and the second plate was placed in a different incubator and pulsed using the pulsed technology of the present invention at 37° C., at 5% CO^2.
Protein extracts were collected at 3 hours, 6 hours, 9 hours, 16 hours or 24 hours of treatment for analysis by SDS-page.
1. For protein extraction the cells were washed twice with ice-cold PBS and then lysed in NP-40 extraction buffer (50 mM Tris ph 7.5; 10% glycerol; 0.1% “NP-40 Alternative” (Merck Millipore, USA); 100 mM NaCl; 0.2 mM EDTA) supplemented with 1× Complete™ Protease Inhibitor Cocktail (Roche, Switzerland). Extracts were sonicated (20 seconds, 20% amplitude) and protein concentration was determined using BCA™ Protein Assay Kit (ThermoFisher Scientific USA) according to the manufacturers recommendations.
1. Protein extracts (15/20 μg depending on the experiment) were supplemented with 0.1M dithiothreitol (DTT) and 1×LDS buffer (Invitrogen, USA) and were heated at 95° C. for 10 min before loading on NuPAGE 10% Bis-Tris polyacrylamide gels (Invitrogen, USA).
2. Protein samples were separated by electrophoresis (100V) using 1×MOPS Running Buffer. Transfer of proteins was performed at 12V overnight onto a nitrocellulose membrane (Protran 0.1 μm from GE Healthcare, USA) in 1× Transfer Buffer supplemented with 20% methanol. 1× Transfer Buffer is prepared from 10× Wet blot solution containing 144 g of glycine and 30 g Tris-Base in a final volume of 1 L milli-Q water.
3. Membranes were blocked for 30 min in 5% BSA diluted in PBS—0.1% Tween20 before being incubated overnight with a primary antibody (Mouse monoclonal antibody D01). After a wash of 15 min. in PBS-Tween20, membranes were incubated for 1 h with a corresponding secondary antibody (HRP conjugated Donkey anti Mouse). […]
At the end of the incubation membranes were washed twice with PBS-Tween20 for 15 min followed by a final 10 min. wash with PBS. The chemiluminescence signal was detected on Hyperfilm™ ECL (Cytiva, USA) using the Amersham ECL Western Blotting Detection System (Cytiva, USA).

SMILES: COc1cccc2c1C(=O)c1c(O)c3c(c(O)c1C2=O)C[C@@](O)(C(=O)CO)C[C@@H]3O[C@H]1C[C@H](N)[C@H](O)[C@H](C)O1 [doxorubicin, Doxorubicin]
- H2AX expression (ionising radiation marker, Western Blot) (pulsed technology vs control arms, FIG. 13): no observed change
- p53alpha expression (Western Blot) (pulsed technology vs control, after 16 hours, FIG. 14): significant overproduction
- p53alpha expression (Western Blot) (then pulsed technology vs control, 3 to 24 hours, FIG. 13): upregulated
- expression of other p53 isoforms d133p53alpha, d133p53beta and d160p53beta (Western Blot) (then pulsed technology vs control, FIG. 13): more upregulated
